{"source": "patent US20120184517A1", "about": "“TREATMENT OF DISEASES WITH ALTERED SMOOTH MUSCLE CONTRACTILITY” (priority 2009, published 2012)", "key": {"OVA-sensitized mice [1]": {"system": "OVA-sensitized mice", "test": "OVA-asthma model, single i.v. dose before airway resistance measurement", "type": "in vivo", "experimental": "Groups of mice received an I.P. injection of OVA/Alum complex on days 0 and 7 and on alternate days 14-22, a 20 minute aerosol challenge of either PBS or 2% (w/v) OVA in PBS, using an ultrasonic nebulizer (FIG. 22A)."}, "[2]": {"system": "mitochondria in intact cells", "details": "cited from earlier work"}, "[3]": {"target": "3-phosphoinositide-dependent protein kinase-1 (PDK-1) (Homo sapiens, UniProt O15530)", "sequence (O15530 whole entry, species assumed)": "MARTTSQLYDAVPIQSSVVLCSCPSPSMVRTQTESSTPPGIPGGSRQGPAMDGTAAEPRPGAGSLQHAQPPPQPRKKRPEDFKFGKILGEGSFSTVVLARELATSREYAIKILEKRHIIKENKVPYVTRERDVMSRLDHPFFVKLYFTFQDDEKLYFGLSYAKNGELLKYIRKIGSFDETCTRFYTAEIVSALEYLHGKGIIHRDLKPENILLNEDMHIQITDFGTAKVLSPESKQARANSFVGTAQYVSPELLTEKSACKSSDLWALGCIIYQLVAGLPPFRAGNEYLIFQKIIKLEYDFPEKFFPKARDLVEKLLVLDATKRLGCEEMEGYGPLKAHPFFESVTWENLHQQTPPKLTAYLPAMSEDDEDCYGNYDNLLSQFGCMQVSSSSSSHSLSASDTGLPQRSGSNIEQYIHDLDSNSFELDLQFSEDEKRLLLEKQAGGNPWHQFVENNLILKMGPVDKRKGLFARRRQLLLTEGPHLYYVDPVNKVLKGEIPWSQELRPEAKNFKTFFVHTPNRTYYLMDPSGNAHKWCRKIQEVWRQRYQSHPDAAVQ", "details": "20 μM; cited from earlier work"}, "BKCa channel": {"target": "BKCa channel (Homo sapiens, UniProt Q12791)", "sequence (Q12791 whole entry)": "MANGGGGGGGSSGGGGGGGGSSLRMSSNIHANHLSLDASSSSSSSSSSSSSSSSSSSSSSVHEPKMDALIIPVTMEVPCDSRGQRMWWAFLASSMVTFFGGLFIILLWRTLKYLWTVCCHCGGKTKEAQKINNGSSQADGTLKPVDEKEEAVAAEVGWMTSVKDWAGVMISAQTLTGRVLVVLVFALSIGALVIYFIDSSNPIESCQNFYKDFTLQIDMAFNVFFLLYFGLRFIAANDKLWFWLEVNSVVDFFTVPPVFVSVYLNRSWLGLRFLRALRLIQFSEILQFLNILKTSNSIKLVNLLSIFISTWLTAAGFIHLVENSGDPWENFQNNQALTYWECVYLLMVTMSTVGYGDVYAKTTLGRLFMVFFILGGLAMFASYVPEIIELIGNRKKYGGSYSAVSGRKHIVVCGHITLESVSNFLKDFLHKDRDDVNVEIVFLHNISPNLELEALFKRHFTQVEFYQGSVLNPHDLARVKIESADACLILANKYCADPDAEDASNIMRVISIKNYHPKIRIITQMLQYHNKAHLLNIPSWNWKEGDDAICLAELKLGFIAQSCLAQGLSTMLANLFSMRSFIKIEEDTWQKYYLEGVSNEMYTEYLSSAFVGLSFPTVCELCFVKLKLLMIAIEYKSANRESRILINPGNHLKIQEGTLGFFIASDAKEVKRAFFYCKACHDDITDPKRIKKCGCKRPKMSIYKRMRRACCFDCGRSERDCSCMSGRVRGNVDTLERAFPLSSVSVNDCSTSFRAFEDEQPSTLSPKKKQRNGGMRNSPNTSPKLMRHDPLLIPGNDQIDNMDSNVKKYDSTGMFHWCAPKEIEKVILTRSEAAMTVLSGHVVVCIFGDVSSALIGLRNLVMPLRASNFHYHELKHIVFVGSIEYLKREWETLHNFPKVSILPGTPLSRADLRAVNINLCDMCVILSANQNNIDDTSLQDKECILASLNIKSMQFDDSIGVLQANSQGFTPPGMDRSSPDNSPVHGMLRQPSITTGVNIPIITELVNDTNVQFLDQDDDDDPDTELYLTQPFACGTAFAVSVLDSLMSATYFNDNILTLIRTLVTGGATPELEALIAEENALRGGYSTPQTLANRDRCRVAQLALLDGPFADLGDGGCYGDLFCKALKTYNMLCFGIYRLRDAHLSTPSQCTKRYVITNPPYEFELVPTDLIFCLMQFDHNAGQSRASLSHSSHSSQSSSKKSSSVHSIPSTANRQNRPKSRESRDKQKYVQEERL", "test": "Outside-out single channel recordings of cultured human VSMC", "type": "cell-based", "parameters": "Human vascular smooth muscle cells (VSMC) grown in vitro express BKCa channels; endogenous in cells; host or cells: cultured human vascular smooth muscle cells (outside-out patches)"}, "OVA-challenged animals": {"system": "OVA-challenged animals", "details": "in vivo; cited from earlier work"}, "OVA-sensitized mice [4]": {"system": "OVA-sensitized mice", "test": "OVA induced acute asthma model, repeated i.p. rottlerin", "experimental": "In this example, the acute asthma model in ovalbumin (OVA) treated mice was used (Jia, Y., R. Foronjy, and J. D'Armiento, Altered airway inflammatory response to cigarette smoke in ovalbumin-sensitized mice. Am J. Resp and Critical Care Medicine (2006) p. Suppl:A339.). […] Mice received an intraperitoneal injection (i.p) of 100 μg ovalbumin adsorbed to 2 mg aluminum (200 μl final volume) on day 0 and again on day 7. Control mice were injected with endotoxin free PBS. On alternative days 14-22, mice received a 20 minute aerosol challenge of either endotoxin-free PBS (controls) or 2% (w/v) OVA in endotoxin-PBS, using a lumiscope 6610 ultrasonic nebulizer (Lumiscope, East Rutherford, N.J.).\nTwo days after the last aerosol challenge, AHR was measured by invasive restrained whole body plethysmography (rWBP) (BUXCO Electronics Inc., Troy, N.Y.) in response to inhaled methacholine (Sigma, St. Louis, Mo.). For dynamic lung resistance, measurements were performed using the PLY3011 chamber (BUXCO). Mice were anesthetized with a cocktail of 25 mg per kg body weight ketamine hydrochloride (Bioniche Pharma, Lake Forest, Ill.) and 2.5 mg per kg body weight xylazine (Llyod Laboratories, Inc., Barangay Tikay, Malolos Bulacan, Philippines), tracheotomized, and immediately intubated with an 18-gauge catheter, followed by mechanical ventilation (Columbus Instruments International, Columbus, Ohio). Respiratory frequency was set at 150 breaths/minute with a tidal volume of 0.2 ml. Increasing concentrations of methacholine (0-50 mg/ml) were administered at the rate of 20 puffs per 10 seconds, with each puff of aerosol delivery lasting 10 ms, via a nebulizer aerosol system with a 4-6 μm aerosol particle size generated by a nebulizer head (Aeroneb®, Aerogen Ltd., Dangan, Galway, Ireland). The nebulizer is attached to a small aerosol block, which is placed in the inspiratory flow line. In this way the aerosol is injected directly into the airway. Baseline resistance was restored before administration of the subsequent doses of methacholine. The flow and pressure signals were measured and processed together to determine resistance and compliance using a software analyzer provided in BioSystem XA software (BUXCO Electronics Inc., Troy, N.Y.).\nAfter measurement of airway responsiveness in vivo, mice were sacrificed and their serum collected and stored at −80° C. until analysis. Serum levels of OVA-specific IgE were measured by sandwich ELISA as described previously (Kanamaru, F., et al. “Costimulation via Glucocorticoid-Induced TNF Receptor in Both Conventional and CD25^+ Regulatory CD4^+ T Cells.” J Immunol., Vol. 172, pages 7306-7314 (2004)).\nBronchoalveolar lavage (BAL) was performed by injection of 1 ml saline (37° C.) through a tracheal cannula into the lung. Cells in the BAL were centrifuged and resuspended in cold PBS. For differential BAL cell counts, cytospin preparations were made and per cytospin, 200 cells were counted and differentiated by standard morphology and staining characteristics.\nIL-4, IL-5 and IL-13 ELISAs were performed according to the manufacturer's instructions (R & D systems, Minneapolis, Minn.). The detection limits of the ELISAs were 60 pg/ml for IL-4, 32 pg/ml for IL-5, 15 pg/ml IL-13.\nIn this system mice are anesthetized and ventilated and through a cannula in the trachea, tracheal pressure and flow are continuously monitored and traditional pulmonary mechanics can be measured. This system is preferable over the method of oscillatory mechanics due to the consistency of measurements and the ability to directly measure pressure and flow. Changes in pressure, flow, and volume were recorded, and RL was calculated from peak values after each challenge (FIG. 14A).\nAfter determining the airway hyperresponsiveness, lungs were lavaged with PBS and total cell count with differential was determined on the bronchoalveolar cells (BAL)."}}, "note": "Entries after “also recorded” stand apart in the source; their conditions may differ.", "data": [{"smiles": "CC(=O)c1c(O)c(C)c(O)c(Cc2c(O)c3c(c(C(=O)/C=C/c4ccccc4)c2O)OC(C)(C)C=C3)c1O", "note": "[rottlerin, 5,7-dihydroxy-2,2-dimethyl-6-(2,4,6-trihydroxy-3-methyl-5-acetylbenzyl)-8-cinnamoyl-I,2-chromene]", "values": [{"measurement": "β-agonist mediated relaxation of the airway", "setting": "OVA-sensitized mice [1]; Rottlerin (5 μg/g) in combination with Isoproterenol (2.5 μg/g), tail vein", "result": "increased β-agonist mediated relaxation of the airway"}, {"measurement": "time to reduction of AHR", "setting": "OVA-sensitized mice [1]; single I.V. administration", "result": "≤ 5", "unit": "min"}, {"measurement": "airway resistance (RL)", "setting": "OVA-sensitized mice [1]; single dose 5 μg/g I.V. 5 minutes before measurement, OVA-sensitized mice", "result": "significant decrease in their RL; also recorded: significantly reduced airway resistance"}, {"measurement": "mitochondrial uncoupling", "setting": "[2]; 10 μM", "result": "uncouple mitochondria"}, {"measurement": "ATP levels", "setting": "[2]; PKC independent", "result": "reduce ATP levels"}, {"measurement": "inhibition", "setting": "[3]", "result": 64, "unit": "%"}, {"measurement": "channel open probability", "setting": "BKCa channel; 0.5 μM rottlerin, outside-out patches, cultured human VSMC", "result": "significant increase"}, {"measurement": "Po and open dwell time", "setting": "BKCa channel; rottlerin 0.5 μM local perfusion, +60 mV", "result": "increasing Po and open dwell time; also recorded: significantly increased"}, {"measurement": "histamine in BAL fluid", "setting": "OVA-challenged animals", "result": "inhibits an increase of histamine"}, {"measurement": "serum OVA specific IgE", "setting": "OVA-sensitized mice [4]; OVA+rottlerin versus OVA, 48 hours after last challenge", "result": "similar"}, {"measurement": "Th2 cytokines IL-4, IL-5 and IL-13 in BALF", "setting": "OVA-sensitized mice [4]; OVA-sensitized animals", "result": "significantly reduced"}, {"measurement": "number of inflammatory leukocytes in BAL", "setting": "OVA-sensitized mice [4]; OVA-sensitized mice", "result": "significant decrease"}, {"measurement": "number of macrophages and eosinophils in BAL", "setting": "OVA-sensitized mice [4]; OVA-sensitized mice", "result": "marked reduction"}, {"measurement": "airway constriction", "setting": "OVA-sensitized mice [4]; OVA-sensitized mice, 25 mg/ml methacholine challenge, rottlerin 5 mg per kg i.p.", "result": "decrease in airway constriction"}, {"measurement": "airway resistance (RL)", "setting": "OVA-sensitized mice [4]; OVA-sensitized mice, MCh 25-50 mg/ml, rottlerin 5 mg per kg i.p.", "result": "decrease in their airway resistance"}, {"measurement": "airway constriction with isoproterenol", "setting": "OVA-sensitized mice [4]; OVA-sensitized mice, isoproterenol i.p. 20, 40 and 100 μg after 50 mg/ml methacholine", "result": "significant decrease in airway constriction"}, {"measurement": "cellular infiltrate in the peribronchial and perivascular regions", "setting": "OVA-sensitized mice [4]; OVA-sensitized/challenged animals, H & E stain", "result": "significant reduction"}, {"measurement": "airway resistance", "setting": "OVA-sensitized mice [4]; PBS-sensitized animals", "result": "no effect"}, {"measurement": "adverse effect, morbidity, mortality", "setting": "OVA-sensitized mice [4]; rottlerin 5 mg per kg i.p., repeated", "result": "no significant adverse effect"}]}]}
